Laboratory results published in PubChem BioAssay (NCI).
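Values below derive from 48-hour exposures of cells grown in 96-well plates, with endpoints linearly interpolated between the two concentrations bracketing the appropriate inhibition level. Abbreviation: GI50, concentration required for 50% inhibition of growth. Definition used: TGI = concentration required for complete inhibition of growth.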

How the values were obtained:
Experiment in all cases: inhibition of tumour cell growth, NCI panel, 48 h
[1] = test system: 786-0 renal
[2] = test system: A498 renal
[3] = test system: A549 NSCLC
[4] = test system: ACHN renal
[5] = test system: BT-549 breast
[6] = test system: CAKI-1 renal
[7] = test system: CCRF-CEM leukemia
[8] = test system: COLO 205 colon
[9] = test system: DU-145 prostate
[10] = test system: EKVX NSCLC
[11] = test system: HCC-2998 colon
[12] = test system: HCT-116 colon
[13] = test system: HCT-15 colon
[14] = test system: HL-60(TB) leukemia
[15] = test system: HOP-62 NSCLC
[16] = test system: HOP-92 NSCLC
[17] = test system: HS 578T breast
[18] = test system: HT29 colon
[19] = test system: IGROV1 ovarian
[20] = test system: K-562 leukemia
[21] = test system: KM12 colon
[22] = test system: LOX IMVI melanoma
[23] = test system: M14 melanoma
[24] = test system: MALME-3M melanoma
[25] = test system: MCF7 breast
[26] = test system: MDA-MB-231 breast
[27] = test system: MDA-MB-435
[28] = test system: MOLT-4 leukemia
[29] = test system: NCI-H226 lung
[30] = test system: NCI-H23 lung
[31] = test system: NCI-H460 lung
[32] = test system: NCI-H522 lung
[33] = test system: NCI/ADR-RES ovarian
[34] = test system: OVCAR-3 ovarian
[35] = test system: OVCAR-4 ovarian
[36] = test system: OVCAR-5 ovarian
[37] = test system: OVCAR-8 ovarian
[38] = test system: PC-3 prostate
[39] = test system: RPMI-8226 leukemia
[40] = test system: RXF 393 renal
[41] = test system: SF-268 CNS
[42] = test system: SF-295 CNS
[43] = test system: SF-539 CNS
[44] = test system: SK-MEL-2 melanoma
[45] = test system: SK-MEL-28 melanoma
[46] = test system: SK-MEL-5 melanoma
[47] = test system: SK-OV-3 ovarian
[48] = test system: SN12C renal
[49] = test system: SNB-19 CNS
[50] = test system: SNB-75 CNS
[51] = test system: SR leukemia
[52] = test system: SW-620 colon
[53] = test system: T-47D breast
[54] = test system: TK-10 renal
[55] = test system: U251 CNS
[56] = test system: UACC-257 melanoma
[57] = test system: UACC-62 melanoma
[58] = test system: UO-31 renal

CCCS(=O)(=O)Nc1cccc(Nc2ncnc3cc(NC(=O)CCl)ccc23)c1Cl
GI50 [1]: 0.935 µM | TGI [1]: 3.88 µM | GI50 [2]: 5.47 µM | TGI [2]: 11 µM | GI50 [3]: 4.99 µM | TGI [3]: 10.1 µM | GI50 [4]: 3.44 µM | TGI [4]: 7.23 µM | GI50 [5]: 2.42 µM | TGI [5]: 6.69 µM | GI50 [6]: 2.32 µM | TGI [6]: 5.95 µM | GI50 [7]: 1.03 µM | TGI [7]: 4.68 µM | GI50 [8]: 1.2 µM | TGI [8]: 5.51 µM | GI50 [9]: 3.09 µM | TGI [9]: 6.31 µM | GI50 [10]: 3.72 µM | TGI [10]: 12.3 µM | GI50 [11]: 5.09 µM | TGI [11]: 10.6 µM | GI50 [12]: 0.968 µM | TGI [12]: 4.03 µM | GI50 [13]: 1.6 µM | TGI [13]: 6.95 µM | GI50 [14]: 4.28 µM | TGI [14]: 10.9 µM | GI50 [15]: 2.36 µM | TGI [15]: 7.12 µM | GI50 [16]: 4.38 µM | TGI [16]: 8.54 µM | GI50 [17]: 3.32 µM | TGI [17]: 17 µM | GI50 [18]: 1.1 µM | TGI [18]: 4.74 µM | GI50 [19]: 2.61 µM | TGI [19]: 7.06 µM | GI50 [20]: 1.04 µM | TGI [20]: 17.1 µM | GI50 [21]: 3.06 µM | TGI [21]: 7.13 µM | GI50 [22]: 0.892 µM | TGI [22]: 3.9 µM | GI50 [23]: 1.11 µM | TGI [23]: 5.16 µM | GI50 [24]: 0.674 µM | TGI [24]: 4.28 µM | GI50 [25]: 1.05 µM | TGI [25]: 5.92 µM | GI50 [26]: 2.34 µM | TGI [26]: 6.08 µM | GI50 [27]: 1.47 µM | TGI [27]: 5.76 µM | GI50 [28]: 1.04 µM | TGI [28]: 7.13 µM | GI50 [29]: 3.31 µM | TGI [29]: 11.9 µM | GI50 [30]: 1.26 µM | TGI [30]: 5.25 µM | GI50 [31]: 3.67 µM | TGI [31]: 8.06 µM | GI50 [32]: 0.432 µM | TGI [32]: 0.913 µM | GI50 [33]: 6.95 µM | TGI [33]: 25 µM | GI50 [34]: 2.98 µM | TGI [34]: 6.62 µM | GI50 [35]: 2.95 µM | TGI [35]: 7.76 µM | GI50 [36]: 2.01 µM | TGI [36]: 5.64 µM | GI50 [37]: 3.71 µM | TGI [37]: 14.1 µM | GI50 [38]: 3.44 µM | TGI [38]: 8.44 µM | GI50 [39]: 3.23 µM | TGI [39]: 8.56 µM | GI50 [40]: 3.26 µM | TGI [40]: 7.13 µM | GI50 [41]: 1.03 µM | TGI [41]: 4.62 µM | GI50 [42]: 3.33 µM | TGI [42]: 7.17 µM | GI50 [43]: 1.35 µM | TGI [43]: 4.54 µM | GI50 [44]: 3.58 µM | TGI [44]: 8.92 µM | GI50 [45]: 2.45 µM | TGI [45]: 9.67 µM | GI50 [46]: 3.4 µM | TGI [46]: 7.14 µM | GI50 [47]: 4 µM | TGI [47]: 8.16 µM | GI50 [48]: 1.06 µM | TGI [48]: 3.85 µM | GI50 [49]: 1.35 µM | TGI [49]: 4.58 µM | GI50 [50]: 2.46 µM | TGI [50]: 5.72 µM | GI50 [51]: 0.838 µM | TGI [51]: 5.49 µM | GI50 [52]: 1.23 µM | TGI [52]: 4.16 µM | GI50 [53]: 3.34 µM | TGI [53]: 9.99 µM | GI50 [54]: 3.21 µM | TGI [54]: 7 µM | GI50 [55]: 0.516 µM | TGI [55]: 1.16 µM | GI50 [56]: 2.46 µM | TGI [56]: 7.57 µM | GI50 [57]: 0.871 µM | TGI [57]: 3.68 µM | GI50 [58]: 4.06 µM | TGI [58]: 7.65 µM

COc1cc2c3c(n(CCCn4cncn4)c(=O)c2cc1OC)-c1cc2c(cc1C3=O)OCO2
TGI [1]: > 49.3 µM | GI50 [2]: 16.8 µM | TGI [2]: > 100 µM | GI50 [3]: 16.3 µM | TGI [3]: > 100 µM | GI50 [4]: < 0.01 µM | TGI [4]: 2.56 µM | GI50 [5]: 31.1 µM | TGI [5]: > 100 µM | TGI [6]: > 100 µM | GI50 [7]: < 0.01 µM | TGI [7]: 3.5 µM | GI50 [8]: > 100 µM | TGI [8]: > 100 µM | GI50 [9]: < 0.0293 µM | TGI [9]: > 34.7 µM | GI50 [10]: > 84.1 µM | TGI [10]: > 100 µM | GI50 [11]: 16.6 µM | TGI [11]: > 100 µM | GI50 [12]: 0.567 µM | TGI [12]: > 100 µM | GI50 [13]: > 100 µM | TGI [13]: > 100 µM | GI50 [14]: < 0.0131 µM | TGI [14]: 1.16 µM | GI50 [15]: < 0.0283 µM | TGI [15]: 59 µM | GI50 [16]: 0.935 µM | TGI [16]: 38.6 µM | GI50 [17]: > 73.6 µM | TGI [17]: > 100 µM | GI50 [18]: > 73.1 µM | TGI [18]: > 100 µM | GI50 [19]: 10.9 µM | TGI [19]: > 100 µM | GI50 [20]: 1.49 µM | TGI [20]: 28.1 µM | GI50 [21]: > 100 µM | TGI [21]: > 100 µM | GI50 [22]: 0.0572 µM | TGI [22]: > 49.3 µM | GI50 [23]: < 0.01 µM | TGI [23]: > 100 µM | GI50 [24]: 1.36 µM | TGI [24]: > 48.1 µM | TGI [25]: > 100 µM | GI50 [26]: 80.9 µM | TGI [26]: > 100 µM | GI50 [27]: > 100 µM | TGI [27]: > 100 µM | GI50 [28]: < 0.01 µM | TGI [28]: 0.242 µM | TGI [29]: > 100 µM | GI50 [30]: 0.0906 µM | TGI [30]: 57.5 µM | GI50 [31]: < 0.01 µM | TGI [31]: > 100 µM | TGI [32]: > 100 µM | GI50 [33]: 1.55 µM | TGI [33]: > 100 µM | GI50 [34]: 31.9 µM | TGI [34]: > 100 µM | GI50 [35]: > 100 µM | TGI [35]: > 100 µM | GI50 [36]: > 100 µM | TGI [36]: > 100 µM | TGI [37]: > 100 µM | GI50 [38]: 39.8 µM | TGI [38]: > 100 µM | GI50 [39]: < 0.0194 µM | TGI [39]: 12.3 µM | GI50 [40]: 11.9 µM | TGI [40]: > 100 µM | GI50 [41]: 99 µM | TGI [41]: > 100 µM | GI50 [42]: < 0.01 µM | TGI [42]: > 100 µM | TGI [43]: 19.6 µM | GI50 [44]: > 100 µM | TGI [44]: > 100 µM | GI50 [45]: > 100 µM | TGI [45]: > 100 µM | GI50 [46]: 0.671 µM | TGI [46]: 31 µM | TGI [48]: > 100 µM | TGI [49]: > 100 µM | GI50 [50]: 0.799 µM | TGI [50]: 99.1 µM | GI50 [51]: < 0.01 µM | GI50 [52]: 1.08 µM | TGI [52]: > 100 µM | TGI [53]: > 100 µM | GI50 [54]: 35.2 µM | TGI [54]: > 88.1 µM | GI50 [55]: < 0.0449 µM | TGI [55]: 31.8 µM | GI50 [56]: > 100 µM | TGI [56]: > 100 µM | GI50 [57]: < 0.01 µM | GI50 [58]: 0.0913 µM | TGI [58]: > 100 µM
